Like-named read-outs stand apart in the source and are kept apart here.
Experiments:
AKR1C3 = target: T1, AKR1C3 (Homo sapiens, UniProt P42330); details: for IC50 Ratio 1C2:1C3: selectivity, ratio of IC50 values AKR1C2 to AKR1C3
T1 sequence (P42330 1-323): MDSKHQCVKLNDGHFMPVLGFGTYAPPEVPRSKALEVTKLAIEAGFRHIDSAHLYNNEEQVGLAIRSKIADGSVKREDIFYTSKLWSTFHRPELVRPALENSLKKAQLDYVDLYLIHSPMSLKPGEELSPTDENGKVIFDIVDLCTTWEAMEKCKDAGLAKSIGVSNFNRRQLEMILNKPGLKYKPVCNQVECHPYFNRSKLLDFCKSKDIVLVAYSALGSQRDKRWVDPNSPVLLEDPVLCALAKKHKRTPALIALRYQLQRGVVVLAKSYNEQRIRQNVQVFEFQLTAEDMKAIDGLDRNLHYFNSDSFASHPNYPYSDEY

AKR1C2 = target: T2, AKR1C2 (Homo sapiens, UniProt P52895)
T2 sequence (P52895 1-323): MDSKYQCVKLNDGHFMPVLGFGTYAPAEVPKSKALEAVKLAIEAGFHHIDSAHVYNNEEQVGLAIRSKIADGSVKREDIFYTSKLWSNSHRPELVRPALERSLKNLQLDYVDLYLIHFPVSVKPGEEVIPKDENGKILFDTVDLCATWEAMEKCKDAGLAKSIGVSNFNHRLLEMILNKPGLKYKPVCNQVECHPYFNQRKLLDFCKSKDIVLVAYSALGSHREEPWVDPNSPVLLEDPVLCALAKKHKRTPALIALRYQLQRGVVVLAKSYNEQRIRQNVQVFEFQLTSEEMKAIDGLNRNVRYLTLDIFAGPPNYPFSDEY

[1] = read-out: 1C3 IC50, recombinant AKR1C3, S-tetralol 165 μM (= Km), NADP+
[2] = read-out: 1C2 IC50, recombinant AKR1C2, S-tetralol 15 μM (= Km), NADP+

Compound	decrease of the inhibitory selectivity (AKR1C3; in comparison to compound 8)	IC50 (AKR1C3; [1])	IC50 Ratio 1C2:1C3 (AKR1C3)	IC50 (AKR1C2; [2])	IC50 (AKR1C3)	IC50 (AKR1C2)	increase of the inhibitory selectivity (AKR1C3; in comparison to compound 8)	further decrease of inhibitory potency for AKR1C3 (AKR1C3; relative to compound 4)	further decrease of inhibitory potency for AKR1C2 (AKR1C2; relative to compound 4)
O=C(O)C=Cc1ccc(OC(=O)CCc2ccccc2)cc1 (mixture of isomers) [Compound 10, (Z/E)-3-(4-((3-phenylpropanoyl)oxy)phenyl)acrylic acid]	1.7 fold	2.3 µM	11	25 µM	–	–	–	–	–
CC(C)(C)OC(=O)C=Cc1ccc(OC(=O)CCc2ccccc2)cc1 (mixture of isomers) [Compound 13, (Z/E)-tert-butyl 3-(4-(3-phenylpropanoyloxy)phenyl)acrylate]	–	632 µM	0.04	27 µM	–	–	–	–	–
CC(C)=CCc1cc(/C=C/C(=O)OC(C)(C)C)ccc1OC(=O)CCc1ccccc1 [Compound 7, tert-butyl(2E)-3-[3-(3-methylbut-2-en-1-yl)-4-[(3-phenylpropanoyl)oxy]phenyl]prop-2-enoate]	–	–	0.3	–	607 µM	153 µM	–	–	–
O=C(O)/C=C/c1ccc(OC(=O)CCc2ccccc2)cc1 [Compound 8, (2E)-3-prop-2-enoic acid]	–	4.7 µM	19	88 µM	–	–	–	–	–
O=C(O)/C=C/c1cccc(OC(=O)CCc2ccccc2)c1 [Compound 9, (E)-3-(3-((3-phenylpropanoyl)oxy)phenyl)acrylic acid]	–	–	28	–	0.96 µM	27 µM	1.5 fold	–	–
O=C(O)/C=C/c1ccc(OC(=O)c2ccccc2)cc1 [Compound 11, (2E)-3-[4-(benzoyloxy)phenyl]prop-2-enoic acid]	–	–	20	–	6.3 µM	127 µM	–	–	–
O=C(O)/C=C/c1ccc(OC(=O)c2ccncc2)cc1 [Compound 12, (2E)-3-[4-(pyridine-4-carbonyloxy)phenyl]prop-2-enoic acid]	–	–	1	–	68 µM	88 µM	–	–	–
O=C(O)/C=C/c1ccc(O)cc1 [Compound 14, p-coumaric acid]	–	–	7	–	199 µM	1300 µM	–	–	–
O=C(O)/C=C/c1cccc(O)c1 [Compound 15, m-coumaric acid]	–	86 µM	5	389 µM	–	–	–	–	–
COc1cc(/C=C/C(=O)O)ccc1O [Compound 16, ferulic acid]	–	21 µM	20	421 µM	–	–	–	–	–
(2E)-3-(3,3-dimethyl-3,4-dihydro-2H-1-benzopyran-6-yl)prop-2-enoate [Compound 5]	–	21 µM	1	14 µM	–	–	–	2 fold	2 fold
